What was measured:
[1] = target: T1, TkLbpA1 (lipoate-binding protein LbpA1, TK90_0638) (Thioalkalivibrio sp. K90mix, UniProt D3SF86); test: MALDI mass spectrometry of enzymatic lipoylation; conditions: covalent; lipoyl group attached to apo-protein by TkLplA with ATP, 37 °C
T1 construct: Strep- or His-tagged (pET22b), made in E. coli as apoprotein
T1 sequence (D3SF86 1-148): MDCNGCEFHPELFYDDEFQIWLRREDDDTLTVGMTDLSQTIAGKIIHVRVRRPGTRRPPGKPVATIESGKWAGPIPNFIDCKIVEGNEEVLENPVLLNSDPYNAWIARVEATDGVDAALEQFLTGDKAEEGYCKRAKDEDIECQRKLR

[2] = target: T2, TkLplA (LplA-like lipoate-protein ligase, TK90_0642) (Thioalkalivibrio sp. K90mix, UniProt D3SF90); test: TLC of lipoyl-AMP from [alpha-32P]ATP; MALDI of lipoylated acceptor; assay type: biochemical; conditions: Mg2+, 50 mM sodium phosphate pH 7.8, 37 °C (adenylation), acceptors TkLbpA1 and TkLbpA2
T2 construct: Strep- or His-tagged (pET22b), made in E. coli; single-domain ligase lacking the small domain
T2 sequence (D3SF90 1-363): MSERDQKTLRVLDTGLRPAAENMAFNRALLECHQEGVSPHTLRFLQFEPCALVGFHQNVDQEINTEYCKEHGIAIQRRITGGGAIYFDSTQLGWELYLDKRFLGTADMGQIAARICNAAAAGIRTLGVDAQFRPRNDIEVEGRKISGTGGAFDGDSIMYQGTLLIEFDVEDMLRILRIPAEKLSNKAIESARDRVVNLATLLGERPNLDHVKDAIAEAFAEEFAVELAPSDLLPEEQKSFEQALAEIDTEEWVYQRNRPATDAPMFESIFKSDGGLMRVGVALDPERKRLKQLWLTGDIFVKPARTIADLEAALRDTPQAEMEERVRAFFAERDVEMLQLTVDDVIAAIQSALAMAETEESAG

[3] = target: T3, TkLbpA2 (lipoate-binding protein LbpA2, TK90_0640) (Thioalkalivibrio sp. K90mix, UniProt D3SF88); test: MALDI mass spectrometry of enzymatic lipoylation; conditions: covalent; lipoyl group attached to apo-protein by TkLplA with ATP, 37 °C
T3 construct: gene gcvH; Strep- or His-tagged (pET22b), made in E. coli as apoprotein
T3 sequence (D3SF88 1-145): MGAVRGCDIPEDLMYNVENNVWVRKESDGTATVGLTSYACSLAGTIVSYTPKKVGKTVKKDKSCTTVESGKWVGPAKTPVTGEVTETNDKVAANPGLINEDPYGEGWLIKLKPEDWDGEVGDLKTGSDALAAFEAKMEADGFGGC

Question: For `O=C(O)CCCC[C@@H]1CCSS1` (racemic) [lipoic acid, 1,2-dithiolane-3-pentanoic acid], which “MALDI mass spectrometry of enzymatic lipoylation” value [1] is on record?
Answer: The overall lipoate ligase activity of LplA-like proteins was confirmed by mass spectrometry

Question: And the “TLC of lipoyl-AMP from [alpha-32P]ATP; MALDI of lipoylated acceptor” value [2]?
Answer: synthesis of both octanoyl-adenylate and lipoyl-adenylate intermediates were readily demonstrated

Question: And the “MALDI mass spectrometry of enzymatic lipoylation” value [3]?
Answer: The overall lipoate ligase activity of LplA-like proteins was confirmed by mass spectrometry
